Results: paper PMC10140010 (Investigational New Drugs, 2023)
Values joined by “and” are separate entries in the source; they are usually repeats but may differ in a detail not shown here. Equal values may be shown once.

What was measured:
[1] = target: CDK2 (Homo sapiens, UniProt P24941); experiment: Z'-LYTE kinase selectivity; type: biochemical
[2] = target: CHK1 (Homo sapiens, UniProt O14757); experiment: Z'-LYTE kinase selectivity; type: biochemical
[3] = target: CK1 alpha (Homo sapiens, UniProt P48729); experiment: Z'-LYTE kinase selectivity; type: biochemical
Chain of CK1 alpha (P48729 whole entry): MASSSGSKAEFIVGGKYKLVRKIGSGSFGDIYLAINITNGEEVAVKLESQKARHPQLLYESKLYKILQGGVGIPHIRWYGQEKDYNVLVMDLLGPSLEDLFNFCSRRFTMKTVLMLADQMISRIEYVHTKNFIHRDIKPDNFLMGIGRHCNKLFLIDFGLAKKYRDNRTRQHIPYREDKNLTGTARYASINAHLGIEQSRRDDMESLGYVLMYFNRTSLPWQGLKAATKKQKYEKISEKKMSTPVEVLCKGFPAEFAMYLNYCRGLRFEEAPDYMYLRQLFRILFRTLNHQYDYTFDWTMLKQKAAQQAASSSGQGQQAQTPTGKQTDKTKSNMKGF

[4] = target: c-MET (Homo sapiens, UniProt P08581); experiment: Z'-LYTE kinase selectivity; type: biochemical
Chain of c-MET (P08581 25-1390): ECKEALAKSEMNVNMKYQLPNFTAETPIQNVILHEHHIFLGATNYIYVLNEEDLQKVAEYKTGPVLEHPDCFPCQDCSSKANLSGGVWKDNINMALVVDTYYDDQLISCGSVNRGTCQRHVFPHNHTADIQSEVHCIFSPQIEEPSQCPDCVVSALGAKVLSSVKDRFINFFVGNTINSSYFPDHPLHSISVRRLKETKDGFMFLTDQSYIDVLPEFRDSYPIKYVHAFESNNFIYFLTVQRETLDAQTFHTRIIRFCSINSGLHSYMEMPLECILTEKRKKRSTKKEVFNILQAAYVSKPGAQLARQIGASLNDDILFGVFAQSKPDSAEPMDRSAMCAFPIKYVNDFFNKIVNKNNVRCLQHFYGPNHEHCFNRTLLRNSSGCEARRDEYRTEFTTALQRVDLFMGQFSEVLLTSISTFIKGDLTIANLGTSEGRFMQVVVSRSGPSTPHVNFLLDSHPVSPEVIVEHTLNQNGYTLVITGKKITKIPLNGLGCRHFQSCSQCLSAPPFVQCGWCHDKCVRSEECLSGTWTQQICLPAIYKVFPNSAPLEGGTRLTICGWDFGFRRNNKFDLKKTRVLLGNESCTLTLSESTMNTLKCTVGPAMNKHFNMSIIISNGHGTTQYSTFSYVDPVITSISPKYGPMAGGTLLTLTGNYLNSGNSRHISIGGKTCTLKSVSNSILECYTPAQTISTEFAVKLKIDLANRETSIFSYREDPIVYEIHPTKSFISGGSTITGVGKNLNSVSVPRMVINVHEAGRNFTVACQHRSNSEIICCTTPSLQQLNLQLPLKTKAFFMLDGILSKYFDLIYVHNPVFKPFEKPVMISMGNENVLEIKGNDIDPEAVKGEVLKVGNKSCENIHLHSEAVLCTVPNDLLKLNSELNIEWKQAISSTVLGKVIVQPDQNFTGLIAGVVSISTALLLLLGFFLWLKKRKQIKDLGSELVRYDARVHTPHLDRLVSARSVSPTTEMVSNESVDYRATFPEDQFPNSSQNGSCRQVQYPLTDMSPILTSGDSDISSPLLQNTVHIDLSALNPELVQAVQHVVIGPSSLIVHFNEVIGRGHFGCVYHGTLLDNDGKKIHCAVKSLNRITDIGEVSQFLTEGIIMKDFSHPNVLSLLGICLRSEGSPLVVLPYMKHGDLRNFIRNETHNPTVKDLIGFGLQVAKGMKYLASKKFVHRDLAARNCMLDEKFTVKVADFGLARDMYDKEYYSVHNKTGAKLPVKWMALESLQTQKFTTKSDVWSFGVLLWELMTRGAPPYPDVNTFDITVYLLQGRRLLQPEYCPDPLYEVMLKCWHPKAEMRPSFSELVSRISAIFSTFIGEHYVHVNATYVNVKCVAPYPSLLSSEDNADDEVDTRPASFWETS

[5] = target: LCK (Homo sapiens, UniProt P06239); experiment: Z'-LYTE kinase selectivity; type: biochemical
Chain of LCK (P06239 whole entry): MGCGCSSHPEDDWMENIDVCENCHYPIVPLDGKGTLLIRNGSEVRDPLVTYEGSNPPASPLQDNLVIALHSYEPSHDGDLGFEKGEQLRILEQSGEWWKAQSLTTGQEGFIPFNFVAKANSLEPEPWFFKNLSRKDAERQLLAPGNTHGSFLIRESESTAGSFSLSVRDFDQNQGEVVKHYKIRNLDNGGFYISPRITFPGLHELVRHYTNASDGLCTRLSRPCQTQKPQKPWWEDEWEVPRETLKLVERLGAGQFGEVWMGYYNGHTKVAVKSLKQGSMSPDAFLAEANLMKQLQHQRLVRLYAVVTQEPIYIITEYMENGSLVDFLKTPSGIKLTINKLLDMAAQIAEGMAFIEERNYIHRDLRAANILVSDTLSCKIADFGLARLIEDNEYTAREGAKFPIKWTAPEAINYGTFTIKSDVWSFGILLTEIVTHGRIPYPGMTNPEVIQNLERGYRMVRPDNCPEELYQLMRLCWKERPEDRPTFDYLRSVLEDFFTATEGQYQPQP

[6] = target: MAPKAPK2 (Homo sapiens, UniProt P49137); experiment: Z'-LYTE kinase selectivity; type: biochemical
[7] = target: P38 alpha (Homo sapiens, UniProt Q16539); experiment: Z'-LYTE kinase selectivity; type: biochemical
[8] = target: PDK1 (Homo sapiens, UniProt O15530); experiment: Z'-LYTE kinase selectivity; type: biochemical; conditions: read-out: IC50 PDK1
Chain of PDK1 (O15530 whole entry): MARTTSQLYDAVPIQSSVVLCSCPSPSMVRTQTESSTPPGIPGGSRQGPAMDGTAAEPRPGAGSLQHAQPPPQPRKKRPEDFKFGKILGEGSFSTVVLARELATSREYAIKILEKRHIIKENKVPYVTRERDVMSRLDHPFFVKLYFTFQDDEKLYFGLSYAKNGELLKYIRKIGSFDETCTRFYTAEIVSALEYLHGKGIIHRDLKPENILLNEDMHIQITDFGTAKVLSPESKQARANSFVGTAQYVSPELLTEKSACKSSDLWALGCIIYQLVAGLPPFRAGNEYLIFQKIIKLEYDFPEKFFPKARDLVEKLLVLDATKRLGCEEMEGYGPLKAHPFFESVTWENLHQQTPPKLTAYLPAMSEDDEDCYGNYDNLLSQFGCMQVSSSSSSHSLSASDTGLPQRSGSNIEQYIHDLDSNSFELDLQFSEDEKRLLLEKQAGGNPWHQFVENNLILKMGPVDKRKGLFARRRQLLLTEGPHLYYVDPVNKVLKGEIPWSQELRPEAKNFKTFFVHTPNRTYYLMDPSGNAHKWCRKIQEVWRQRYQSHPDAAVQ

[9] = target: SRC (Homo sapiens, UniProt P12931); experiment: Z'-LYTE kinase selectivity; type: biochemical
Chain of SRC (P12931 whole entry): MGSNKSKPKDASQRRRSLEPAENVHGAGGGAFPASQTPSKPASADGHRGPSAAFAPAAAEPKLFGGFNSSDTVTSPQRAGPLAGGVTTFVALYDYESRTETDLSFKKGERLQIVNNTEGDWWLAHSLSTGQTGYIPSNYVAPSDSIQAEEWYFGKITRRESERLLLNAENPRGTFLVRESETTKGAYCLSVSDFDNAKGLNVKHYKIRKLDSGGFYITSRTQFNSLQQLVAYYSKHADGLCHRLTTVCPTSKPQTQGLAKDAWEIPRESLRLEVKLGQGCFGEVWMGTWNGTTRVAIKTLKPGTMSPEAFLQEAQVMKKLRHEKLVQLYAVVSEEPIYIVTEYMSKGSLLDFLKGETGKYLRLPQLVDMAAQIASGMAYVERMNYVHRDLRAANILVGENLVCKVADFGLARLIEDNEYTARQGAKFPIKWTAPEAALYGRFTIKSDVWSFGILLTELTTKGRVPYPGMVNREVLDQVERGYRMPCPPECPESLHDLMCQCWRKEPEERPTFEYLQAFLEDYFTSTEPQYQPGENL

[10] = target: TAOK2 (Homo sapiens, UniProt Q9UL54); experiment: Z'-LYTE kinase selectivity; type: biochemical
Chain of TAOK2 (Q9UL54 whole entry): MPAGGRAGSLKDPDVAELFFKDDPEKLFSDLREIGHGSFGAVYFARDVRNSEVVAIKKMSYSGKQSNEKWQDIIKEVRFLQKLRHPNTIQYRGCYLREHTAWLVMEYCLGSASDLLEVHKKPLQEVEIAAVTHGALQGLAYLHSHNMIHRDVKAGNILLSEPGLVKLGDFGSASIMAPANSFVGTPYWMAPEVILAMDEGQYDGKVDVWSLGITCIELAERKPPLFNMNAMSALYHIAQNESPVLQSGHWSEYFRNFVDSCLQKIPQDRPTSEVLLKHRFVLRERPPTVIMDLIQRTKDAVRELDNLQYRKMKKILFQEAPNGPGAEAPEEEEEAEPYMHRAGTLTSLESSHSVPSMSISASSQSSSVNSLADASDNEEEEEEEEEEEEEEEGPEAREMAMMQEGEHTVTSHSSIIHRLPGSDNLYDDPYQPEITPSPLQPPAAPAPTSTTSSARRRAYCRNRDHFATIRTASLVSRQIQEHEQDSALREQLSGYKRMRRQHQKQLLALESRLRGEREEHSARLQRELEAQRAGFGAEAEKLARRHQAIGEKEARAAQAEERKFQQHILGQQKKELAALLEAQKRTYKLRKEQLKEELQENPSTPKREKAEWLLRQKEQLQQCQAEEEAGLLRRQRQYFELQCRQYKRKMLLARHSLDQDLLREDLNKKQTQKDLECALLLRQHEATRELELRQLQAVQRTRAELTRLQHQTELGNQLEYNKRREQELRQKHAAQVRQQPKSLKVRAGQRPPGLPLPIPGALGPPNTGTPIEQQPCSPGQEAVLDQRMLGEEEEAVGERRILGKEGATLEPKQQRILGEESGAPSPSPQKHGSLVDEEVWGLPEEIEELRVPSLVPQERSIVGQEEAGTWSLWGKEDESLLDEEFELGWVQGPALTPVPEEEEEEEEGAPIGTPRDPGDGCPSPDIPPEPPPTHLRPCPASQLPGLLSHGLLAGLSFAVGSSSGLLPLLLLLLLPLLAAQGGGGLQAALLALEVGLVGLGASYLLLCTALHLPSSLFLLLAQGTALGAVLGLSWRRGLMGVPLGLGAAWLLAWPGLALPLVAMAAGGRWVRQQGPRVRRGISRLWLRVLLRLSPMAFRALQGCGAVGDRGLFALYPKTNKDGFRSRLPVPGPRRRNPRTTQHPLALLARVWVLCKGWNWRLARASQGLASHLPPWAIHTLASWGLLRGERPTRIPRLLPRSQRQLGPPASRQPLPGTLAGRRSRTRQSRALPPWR

[11] = test system: Ba/F3 (EML4-ALK^C1156Y) cells; experiment: Cell proliferation (CellTiter-Glo); type: cell-based; conditions: read-out: IC50 BaF3-EML4-ALK C1156Y
Method: (§1) Cell proliferation assay was performed using methods reported in the previous article. Cell proliferation was measured using the CellTiter-Glo® (CTG) Luminescent Cell Viability Assay (Promega, WI, USA). Cells were seeded in 96-well plates at 15,000 cells per well in detection medium containing 0.5% fetal bovine serum and placed in an incubator at 37℃ and 5% CO2 overnight. On the following day, iruplinalkib was serially diluted with DMSO, further diluted in assay medium, and added to the designated wells for serial dilution of iruplinalkib to the target gradient concentration.
(§2) Transfection was performed when cell confluent reached 70–90% in 12-well plates. Opti-MEM medium was used to dilute Lipofectamine 3000 reagent (ThermoFisher, MA, USA) and siRNA separately and mixed well. The mixture was added to the cells after incubation at room temperature for 15 min, then at 37℃ for 2–4 days.

[12] = test system: Ba/F3 (EML4-ALK^WT) cells; experiment: Cell proliferation (CellTiter-Glo); type: cell-based; conditions: read-out: IC50 BaF3-EML4-ALK WT
Method: as §1, §2

[13] = test system: LU-01-0015 (HIP-ALK) patient derived lung-tumor xenografts; experiment: LU-01-0015 patient-derived xenograft model (tumor volume, body weight); type: in vivo, BALB/c nude mice; conditions: for Tumor volume Mean: group mean; for Tumor volume: individual mouse, in mm³
Method: Female BALB/c nude mice (4–6 weeks old) were provided by Shanghai Sipple-Bikai Laboratory Animal Co., Ltd. and Beijing Vital River Laboratory Animal Technology Co., Ltd. The mice were housed in a specific pathogen-free environment under a 12 h light/dark cycle, and had free access to sterile animal feed and water.
PDX and CDX models were used for in vivo studies. Patient-derived tumors tissues were divided into about 30 mm^3 and transplanted into the right dorsal subcutis. Treatment began when the tumor size reached to 200 mm^3. The mice were randomly assignied into the corresponding dosing groups (9 mice in each group). Drugs were deliverd via daily oral for 4 weeks. Tumor size was measured periodically using a digital caliper (Cal Pro, Sylvac, Switzerland), and tumor volume was calculated as 0.5 × length × width^2. For more detailed information, please refer to Supplementary materials. All procedures and protocols of xenograft models were approved by the Institutional Animal Care and Use Committee of WuXi AppTec.
Patient-derived tumor tissue was segmented into small pieces of approximately 20–30 mm^3 and transplanted subcutaneously into the right back of mice. When the tumor volume reached 150-200 mm^3, the mice were randomly divided into corresponding groups (9 mice in each group, female). Administered by gavage once daily for 4 weeks.

[14] = 5 mg/kg PO QD×4 W, day 0 after administration
[15] = 5 mg/kg PO QD×4 W, day 7 after administration
[16] = 5 mg/kg PO QD×4 W, day 10 after administration
[17] = 5 mg/kg PO QD×4 W, day 14 after administration
[18] = 5 mg/kg PO QD×4 W, day 17 after administration
[19] = 5 mg/kg PO QD×4 W, day 21 after administration
[20] = 5 mg/kg PO QD×4 W, day 24 after administration
[21] = 5 mg/kg PO QD×4 W, day 27 after administration
[22] = 10 mg/kg PO QD×4 W, day 0 after administration
[23] = 10 mg/kg PO QD×4 W, day 3 after administration
[24] = 10 mg/kg PO QD×4 W, day 7 after administration
[25] = 10 mg/kg PO QD×4 W, day 10 after administration
[26] = 10 mg/kg PO QD×4 W, day 14 after administration
[27] = 10 mg/kg PO QD×4 W, day 17 after administration
[28] = 10 mg/kg PO QD×4 W, day 21 after administration
[29] = 10 mg/kg PO QD×4 W, day 24 after administration
[30] = 10 mg/kg PO QD×4 W, day 27 after administration

Chain of CHK1 (O14757 whole entry): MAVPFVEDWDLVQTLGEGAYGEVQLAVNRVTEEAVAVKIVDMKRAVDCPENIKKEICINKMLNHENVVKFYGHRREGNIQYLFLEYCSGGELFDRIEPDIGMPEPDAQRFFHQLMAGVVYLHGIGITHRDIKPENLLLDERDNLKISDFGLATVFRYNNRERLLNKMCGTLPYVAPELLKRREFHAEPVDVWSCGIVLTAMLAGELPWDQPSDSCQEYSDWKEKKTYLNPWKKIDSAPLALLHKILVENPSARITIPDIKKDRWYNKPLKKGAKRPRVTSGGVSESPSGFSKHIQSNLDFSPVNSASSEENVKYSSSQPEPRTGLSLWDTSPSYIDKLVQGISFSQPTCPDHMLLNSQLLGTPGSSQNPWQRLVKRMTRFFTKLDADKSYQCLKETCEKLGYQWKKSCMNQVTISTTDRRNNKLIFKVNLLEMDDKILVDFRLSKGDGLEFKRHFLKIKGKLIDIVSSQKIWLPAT

COc1cc(N2CCC(N3CCN(C)CC3)CC2)ccc1Nc1ncc(Cl)c(Nc2ccccc2P(C)(C)=O)n1 [Brigatinib, reference compound]
IC50 [1]: 1510 ± 554 nM
IC50 [2]: 70 ± 32 nM
IC50 [3]: > 10000 nM
IC50 [4]: 1830 ± 231 nM
IC50 [5]: 444 ± 84 nM
IC50 [6]: > 10000 nM
IC50 [7]: > 10000 nM
IC50 [8]: > 10000 nM
IC50 [9]: 950 ± 309 nM
IC50 [10]: 964 ± 48 nM
IC50 [11]: 14 nM
IC50 [12]: 6 nM
Tumor volume Mean [13, 14]: 153 mm³
Tumor volume [13, 14]: 189 and 117 and 124
Tumor volume ([13]; 5 mg/kg PO QD×4 W, day 3 after administration): 172 and 123 and 114
Tumor volume Mean [13, 15]: 146 mm³
Tumor volume [13, 15]: 149 and 98
Tumor volume Mean [13, 16]: 122 mm³
Tumor volume [13, 16]: 128 and 67
Tumor volume Mean [13, 17]: 123 mm³
Tumor volume [13, 17]: 154 and 64
Tumor volume Mean [13, 18]: 146 mm³
Tumor volume [13, 18]: 177 and 96
Tumor volume Mean [13, 19]: 162 mm³
Tumor volume [13, 19]: 138 and 255
Tumor volume Mean [13, 20]: 148 mm³
Tumor volume [13, 20]: 122 and 117
Tumor volume Mean [13, 21]: 157 mm³
Tumor volume [13, 21]: 113 and 101 and 56
Tumor volume Mean [13, 22]: 149 mm³
Tumor volume [13, 22]: 229 and 201 and 134 and 173 and 152 and 164 and 80 and 99 and 111
Tumor volume Mean [13, 23]: 141 mm³
Tumor volume [13, 23]: 206 and 208 and 136 and 143 and 125 and 137 and 82 and 123 and 106
Tumor volume Mean [13, 24]: 123 mm³
Tumor volume [13, 24]: 195 and 180 and 121 and 110 and 74 and 78 and 152 and 89
Tumor volume Mean [13, 25]: 114 mm³
Tumor volume [13, 25]: 236 and 171 and 101 and 97 and 63 and 85 and 89 and 106 and 80
Tumor volume Mean [13, 26]: 108 mm³
Tumor volume [13, 26]: 204 and 172 and 98 and 118 and 60 and 84 and 74 and 89 and 71
Tumor volume Mean [13, 27]: 133 mm³
Tumor volume [13, 27]: 239 and 176 and 118 and 196 and 66 and 106 and 97 and 89
Tumor volume Mean [13, 28]: 133 mm³
Tumor volume [13, 28]: 247 and 182 and 156 and 187 and 61 and 96 and 111 and 68 and 85
Tumor volume Mean [13, 29]: 136 mm³
Tumor volume [13, 29]: 262 and 186 and 98 and 210 and 62 and 101 and 137 and 102 and 70
Tumor volume Mean [13, 30]: 152 mm³
Tumor volume [13, 30]: 332 and 197 and 131 and 249 and 47 and 95 and 163 and 85 and 70
tumor growth inhibition ([13]; LU-01-0015 and NCI-H3122 xenograft models, all P < 0.05): able to inhibit tumor growth
effect on body weight ([13]; nude mouse xenograft models (LU-01-0015, NCI-H3122), all P ≥ 0.05): no effect
